The source of these data is US20260198495A1, “BINARY INSECTICIDE COMPOSITION AND USE THEREOF” (SHENYANG SINOCHEM AGROCHEMICALS R & D CO., LTD., priority 2022, published 2026).

Values after ≈ are worked out from the molar mass of the structure shown.

Holding throughout (type): in vivo
Assay [1] has as its system 3rd-instar larvae of Ostrinia furnacalis Guenee. Kind of assay: Joint toxicity of I-72 + pymetrozine, Example 79, Table 79. Particulars: A = compound I-72, B = pymetrozine, corn stem dipping, 72 hours, read-out: LC50. On the procedure:
Test target: 3rd-instar larvae of Ostrinia furnacalis Guenee.
(§1) Preparation of the pesticide solution: according to different test requirements, the test samples were accurately weighed respectively with an electronic analytical balance. The technical pesticides were dissolved in acetone, and then diluted with 0.1% Tween 80 water into a series of pesticide solutions with a certain concentration gradient according to the experimental design dosage.
Experimental method: first, tender corn stems were selected and dipped in the prepared pesticide solution for 10 s in the order from low dosage to high dosage according to the experimental design. After natural air-drying in the shade, they were placed in a 9-cm-diameter Petri dish with filter paper, and uniform and healthy test insects were introduced, with 10 insects for each treatment and 3 replicates for each treatment. In addition, a blank control was set up.
The treated test materials were placed in an observation room, and the temperature, humidity and illumination of the observation room could be adjusted as needed. The number of dead and live insects was investigated 72 hours later. […] Then, the co-toxicity coefficient of each ratio was calculated using the Sun Y-P method to evaluate the mixing effect (the same as in Example 1).

The subject of a further assay is Aphis craccivora nymphs. As to the kind of experiment: whole plant or invertebrate. The settings on record: A = compound I-72, B = sulfoxaflor, broad bean seedling spraying, 48 hours, read-out: LC50. On the procedure:
Test target: Aphis craccivora nymphs, a sensitive strain reared indoors.
as §1
Experimental method: first, broad bean seedlings with uniform and consistent Aphis craccivora were selected, with about 30-40 insects on each seedling. Then, they were evenly sprayed with the pesticide solution in the order from low dosage to high dosage according to the experimental design, with 1.5 mL of the solution for each leaf and 3 replicates for each treatment. In addition, a blank control was set up.
The treated test materials were placed in an observation room, and the temperature, humidity and illumination of the observation room could be adjusted as needed. The number of dead and live insects was investigated 48 hours later.

The test system of assay [2] is 2nd-instar larvae of Chilo suppressalis (Walker). Kind of assay: Joint toxicity of I-72 + abamectin, rice stalk spraying, Example 7, Table 7. Particulars: Chilo suppressalis, resistant 2nd-instar larvae, 72 h, A = compound I-72, B = abamectin, read-out: LC50. The procedure:
Test target: 2nd-instar larvae of Chilo suppressalis (Walker). The insect source was collected from Nanchang, Jiangxi Province, and it is the 11th generation continuously cultured indoors, with a relatively high resistance level to amide pesticides such as chlorantraniliprole.
Test conditions: temperature: 25-27° C., humidity: RH 60%, and illumination: L:D=14:10
Preparation method: the test pesticides were accurately weighed respectively with an electronic analytical balance. After the two technical materials were respectively added into an appropriate amount of solvent and completely dissolved, the stock solution of the required concentration was prepared with water containing 0.1% Tween 80. The stock solutions of the two active ingredients were mixed in a certain ratio to prepare a mixed solution, which was then diluted respectively into a series of pesticide solutions with a certain concentration gradient according to the experimental design dosage.
Experimental method: the spraying method was adopted. […] The corrected mortality rate was calculated using the Abbott's formula, and the DPS data processing software was used for statistical analysis to calculate the toxicities (LC50 values) of the single test pesticides and the mixtures under the test ratios. […]

In assay [3] the test system is Bemisia tabaci (Gennadius) nymphs. As to the kind of experiment: Joint toxicity of I-72 + bifenthrin, Example 40, Table 40. Particulars: A = compound I-72, B = bifenthrin, cotton leaf-disk spraying, 96 hours, read-out: LC50. On the procedure: (§2) Test target: Bemisia tabaci (Gennadius) nymphs, a sensitive strain reared indoors.
as §1
(§3) Experimental method: first, cotton leaves with neat and consistent Bemisia tabaci (Gennadius) nymphs were selected and made into leaf disks, with about 20 insects on each leaf disk. Then, they were evenly sprayed with the pesticide solution in the order from low dosage to high dosage according to the experimental design, with 1.5 mL for each leaf and 3 replicates for each treatment. In addition, a blank control was set up.
(§4) The treated test materials were placed in an observation room, and the temperature, humidity and illumination of the observation room could be adjusted as needed. The number of dead and live insects was investigated 96 hours later. […] Then, the co-toxicity coefficient of each ratio was calculated using the Sun Y-P method to evaluate the mixing effect (the same as in Example 1).

The next assay has as its system Rhizoctonia solani. As to the kind of experiment: Control efficacy against Rhizoctonia solani, rice seedling potting method, Example 89, Table 89. Particulars: rice seedlings, foliar spraying. The procedure:
Control efficacy of the composition containing the compound I-72 against Rhizoctonia solani
Test target: Rhizoctonia solani, a sensitive strain cultured indoors.
The trial adopted the seedling potting method. Test crop: rice. Experimental method: the rice seedlings were cultured to the 2-leaf stage in the greenhouse of the experimental materials. Foliar spraying treatment was performed on the crop sprayer according to the designed dosage. The test target strain was inoculated 24 hours after the pesticide treatment. All the inoculated experimental materials were cultured in a phytotron. […] The disease grading and the calculation method of the control efficacy both referred to the agricultural industry standards of the People's Republic of China.

Assay [4] deals with Bemisia tabaci (Gennadius) nymphs. As to the kind of experiment: Joint toxicity of I-72 + thiacloprid, Example 71, Table 71. Particulars: A = compound I-72, B = thiacloprid, cotton leaf-disk spraying, 96 hours, read-out: LC50. On the procedure: as §2, §1, §3, §4

As a reminder, the LC50 is the concentration lethal to half of the exposed cells or organisms. Take `CN(C(=O)c1ccc2c(c1)OC(F)(F)O2)c1cccc(C(=O)Nc2c(Br)cc(C(F)(C(F)(F)F)C(F)(F)F)cc2OC(F)F)c1F` [Compound I-72]: the LC50 was 0.801 µg/mL in assay [1]; 2.52 µg/mL (≈ 3.41 µM) with Aphis craccivora nymphs; 0.811 µg/mL in assay [2]; 10.9 µg/mL in assay [3]; 10.9 µg/mL in assay [4]. Further, the Control efficacy in the assay on Rhizoctonia solani (5 mg/L, A = compound I-72, B = coumoxystrobin) stood at 0%; with Rhizoctonia solani (5 mg/L, A = compound I-72, B = pyraoxystrobin), 0%; with Rhizoctonia solani (10 mg/L, A = compound I-72, B = coumoxystrobin) it was 0%; in the assay with Rhizoctonia solani (10 mg/L, A = compound I-72, B = pyraoxystrobin), 0%; in the assay with Rhizoctonia solani (20 mg/L, A = compound I-72, B = coumoxystrobin) it was 0%; with Rhizoctonia solani (20 mg/L, A = compound I-72, B = pyraoxystrobin) it was 0%.
